Measured values reported in ChEMBL document CHEMBL3046334 (Med Chem Res, 2012).
pIC50: −log10 of the molar value.

Each compound was assayed against T1, Prostaglandin G/H synthase 2 (Homo sapiens, UniProt P35354) (assay: Inhibition of COX2 in Homo sapiens (human) whole blood).
T1 sequence (P35354 whole entry): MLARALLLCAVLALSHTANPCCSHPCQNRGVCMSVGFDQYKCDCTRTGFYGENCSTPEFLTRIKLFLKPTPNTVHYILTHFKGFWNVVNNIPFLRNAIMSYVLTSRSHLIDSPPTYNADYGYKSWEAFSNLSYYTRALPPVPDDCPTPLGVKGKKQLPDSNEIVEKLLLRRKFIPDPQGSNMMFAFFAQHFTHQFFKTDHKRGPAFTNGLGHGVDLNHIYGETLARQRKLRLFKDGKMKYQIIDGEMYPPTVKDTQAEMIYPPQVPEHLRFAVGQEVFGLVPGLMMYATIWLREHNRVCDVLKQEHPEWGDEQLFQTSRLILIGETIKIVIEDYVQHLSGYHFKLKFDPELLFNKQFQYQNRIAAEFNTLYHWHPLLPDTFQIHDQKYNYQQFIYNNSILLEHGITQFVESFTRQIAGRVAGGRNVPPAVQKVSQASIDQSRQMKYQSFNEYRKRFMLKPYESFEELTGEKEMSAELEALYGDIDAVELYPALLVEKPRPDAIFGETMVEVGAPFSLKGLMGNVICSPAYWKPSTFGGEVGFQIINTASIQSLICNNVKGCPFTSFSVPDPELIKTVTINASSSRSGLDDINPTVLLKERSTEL
`CS(=O)(=O)c1ccc(-c2nc(NC3CC=CCC3)cc(C(F)(F)F)n2)cc1` (centres undefined) was tested, and the pIC50 was 7.48.
Compound `CS(=O)(=O)c1ccc(-c2nc(NCCCc3cccs3)cc(C(F)(F)F)n2)cc1` has a pIC50 of 5.92.
With `Cn1cccc1CCCNc1cc(C(F)(F)F)nc(-c2ccc(S(C)(=O)=O)cc2)n1` the pIC50 was 5.40.
For `NS(=O)(=O)c1ccc(-c2nc(NCc3ccccc3)cc(C(F)(F)F)n2)cc1`, the pIC50 was 5.48.
